Entries after “also recorded” stand apart in the source; their conditions may differ.
What was measured:
Assay type in all cases: cell-based, human
[1] = tested on: EMX2 expression in NSCLC cell lines; assay: DAC de-methylation treatment of NSCLC cell lines, EMX2 expression by semi-quantitative RT-PCR; conditions: 5 μM DAC, NSCLC / lung cancer cell lines with initially silenced EMX2
Description: Reverse transcription-polymerase chain reaction (RT-PCR) was performed in a GeneAmp PCR system 9700 (Applied Biosystems, Foster City, Calif.), using an RT-PCR kit (SuperScript II one-step RT-PCR with Platinum Taq kit; Invitrogen, Carlsbad, Calif.) according to the manufacturer's protocol. Primers for RT-PCR were obtained from Operon Biotechnologies (Huntsville, Ala.). Total RNA of normal human lung was obtained from the Biochain Institute (Hayward, Calif.). Total RNA (500 ng) was used for each reaction. Primer sequences were as follows: human EMX2 DNA, Forward primer; 5′-[…]-3′ (SEQ ID NO: 3), Reverse primer; 5′-[…]-3′ (SEQ ID NO:4).
Human NSCLC cell lines H1299, H322 and A427 were purchased from American Type Culture Collection (ATCC), (Manassas, Va.). These cell lines were cultured in RPMI 1640 supplemented with 10% fetal bovine serum, penicillin (100 IU/mL) and streptomycin (100 μg/mL). All cells were cultured at 37° C. in a humidified incubator with 5% CO2. Total RNA from cell lines was isolated using RNeasy Mini kit (Qiagen). Treatment with 5 μM 5-aza-2′-deoxycytidine (DAC; Sigma) was done according to Clement G. et al., “Epigenetic alteration of the Wnt inhibitory factor-1 promoter occurs early in the carcinogenesis of Barrett's esophagus.” Cancer Sci 99:46-53 (2008).
Cell Culture and 5-Aza-2′-deoxycytidine (DAC) Treatment. […]

OE33 cells = assay: DAC de-methylation treatment, EMX2 expression by semi-quantitative RT-PCR in OE33; conditions: OE33 cells that did not originally express EMX2
TE-7 cells = assay: DAC treatment negative control, EMX2 expression by semi-quantitative RT-PCR in TE-7; conditions: TE-7 cells that endogenously expressed EMX2
[2] = tested on: H1299 cells stably transfected with EMX2; assay: MTS assay of chemo-synergic effect between EMX2 and cisplatin; conditions: compared with cisplatin or EMX2 alone, cisplatin 0.3 ng/ml (FIG. 23D)
Description: The chemo-synergic effect between EMX2 and cisplatin was examined in order to determine whether EMX2 could sensitize NSCLC cells to cisplatin treatment. The H1299 lung cancer cell line was stably transfected with EMX2 The chemo-synergic effect between EMX2 and cisplatin was measured in this cell line by MTS assay (Promega, Madison, Wis.).
Stable EV- or EMX2 transfected cells were plated in 96-well plates at a density of 500 cells per well in 100 μl of culture medium with G418. Medium was changed every three days. Cell viability was evaluated by CELLTITER 96 Aqueous one solution cell proliferation assay (MTS assay) (Promega, Madison, Wis.) on days 1-7. Briefly, 20 μl of reagent was added to each well and incubated in a culture hood for 2 hr. Absorbance at 490 nm was measured with a kinetic microplate reader (Vmax; Molecular Devices, Sunnyvale, Calif.) and was used as a measure of cell number. Experiments were repeated three times.
Proliferation Assays. Stably transfected cells were plated in 96-well plates at a density of 500-1000 cells/well in 100 μl of G418 culture medium. Medium was changed every day. Cell viability was evaluated in triplicate by CellTiter 96 AQueous (Promega) per manufacturer's protocol. […] Colonies were then fixed by 10% formalin, stained with 0.5% crystal violet and counted.

## Nc1ncn([C@H]2C[C@H](O)[C@@H](CO)O2)c(=O)n1 [DAC, 5-aza-2′-deoxycytidine]
[1]
  EMX2 expression after DAC treatment: restored EMX2 expression levels
OE33 cells
  EMX2 expression after DAC treatment: restoration of EMX2 expression
OE33 cells; listed as 5-aza-DAC
  EMX2 expression after DAC treatment: restored
TE-7 cells
  EMX2 expression levels after DAC treatment: not affected

## N.N.[Cl][Pt][Cl] [cisplatin]
[2]
  Suppression of cell proliferation by cisplatin combined with EMX2: further enhanced; also recorded: more efficiently suppressed; also recorded: significantly enhanced
